Target: ATP-dependent translocase ABCB1 (Homo sapiens, UniProt P08183)
Assay: TP_TRANSPORTER: inhibition of Verapamil binding in membranes from Vinblastine-induced Caco-2 cells
Type: functional, cell membranes, Membrane

Sequence of ATP-dependent translocase ABCB1 (P08183 whole entry): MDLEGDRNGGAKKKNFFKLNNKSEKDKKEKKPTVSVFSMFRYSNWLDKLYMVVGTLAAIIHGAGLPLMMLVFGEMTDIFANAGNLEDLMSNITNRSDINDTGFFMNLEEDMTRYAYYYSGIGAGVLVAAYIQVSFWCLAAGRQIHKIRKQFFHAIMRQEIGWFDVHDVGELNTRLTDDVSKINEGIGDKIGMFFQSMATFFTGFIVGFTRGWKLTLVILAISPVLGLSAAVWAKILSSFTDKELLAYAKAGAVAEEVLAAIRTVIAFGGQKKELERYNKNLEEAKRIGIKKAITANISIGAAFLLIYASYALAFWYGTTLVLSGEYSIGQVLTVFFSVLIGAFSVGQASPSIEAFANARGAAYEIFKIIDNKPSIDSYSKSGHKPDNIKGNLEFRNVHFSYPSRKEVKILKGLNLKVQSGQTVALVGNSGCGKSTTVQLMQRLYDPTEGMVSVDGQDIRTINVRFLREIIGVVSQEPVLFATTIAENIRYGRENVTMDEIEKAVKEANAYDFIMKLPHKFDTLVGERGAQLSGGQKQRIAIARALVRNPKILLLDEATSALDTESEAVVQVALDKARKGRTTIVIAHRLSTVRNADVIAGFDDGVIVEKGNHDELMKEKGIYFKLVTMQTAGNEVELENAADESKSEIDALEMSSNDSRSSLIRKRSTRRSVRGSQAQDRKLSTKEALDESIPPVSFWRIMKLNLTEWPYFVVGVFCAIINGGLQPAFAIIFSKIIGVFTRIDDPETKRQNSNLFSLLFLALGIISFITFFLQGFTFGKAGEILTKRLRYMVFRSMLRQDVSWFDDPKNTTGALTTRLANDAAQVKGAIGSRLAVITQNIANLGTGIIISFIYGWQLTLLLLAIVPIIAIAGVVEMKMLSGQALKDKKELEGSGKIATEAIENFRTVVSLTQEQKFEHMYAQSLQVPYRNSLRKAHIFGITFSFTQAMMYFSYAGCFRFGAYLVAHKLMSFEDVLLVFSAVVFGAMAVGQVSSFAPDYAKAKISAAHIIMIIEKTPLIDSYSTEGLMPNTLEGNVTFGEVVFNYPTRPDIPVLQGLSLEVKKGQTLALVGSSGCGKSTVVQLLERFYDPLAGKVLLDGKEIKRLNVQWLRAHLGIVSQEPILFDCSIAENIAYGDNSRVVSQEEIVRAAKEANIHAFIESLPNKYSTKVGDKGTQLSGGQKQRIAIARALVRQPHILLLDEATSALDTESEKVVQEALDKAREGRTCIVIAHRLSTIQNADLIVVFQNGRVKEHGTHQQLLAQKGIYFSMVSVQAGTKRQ

Ki (read-out: Ki1): 0.0055 mM
Ki (read-out: Ki2): 3.2 mM
SMILES: CC(C)NCC(O)COc1ccc(CCNC(=O)NC(C)C)cc1 (configuration not stated) [PAFENOLOL]
